This note sets out measurements from patent US9085531B2 (priority 2004, dated 2015).

Where a name gives a salt, the structure may show the parent alone.

Data set [1] has as its system tetrabenazine-induced exploratory loss and ptosis in mice. Nature of the data set: Tetrabenazine assay. To be noted: mouse, in vivo.

As to `COC(=O)C(c1ccccc1)C1CCCCN1.Cl` (stereo not shown) [Ritalin®], the “activity in the tetrabenazine assay” value in data set [1] is “potent activity”. For the compound `CN1Cc2cc(-c3cccnn3)ccc2C(c2cc3ccccc3s2)C1` (stereo not shown) (as salt: maleate), the melting point lay within 100 to 104 °C.

As to `CN1Cc2ccccc2C(C2=Cc3ccccc3CCC2)C1` (stereo not shown) (as salt: maleate), the melting point was 178 to 180 °C. On to `CN1Cc2c(N)cccc2C(c2ccccc2)C1` (stereo not shown) [Nomifensine], for which the “activity in the tetrabenazine assay” value in data set [1] was “potent biological activity”.

What is called melting point is the temperature, or range, at which the solid turns liquid.
